# Measured values: patent US11285156B2, “Substituted piperazines as KRAS G12C inhibitors” (Amgen Inc., priority 2018, dated 2022)
# Read-outs that look alike come from different tables or passages of the source.
# How the values were obtained:
# [1] = test system: Phosphorylation of ERK1/2 in A549 cells; test: Phospho-ERK1/2 MSD assay in A549 cells; type: cell-based; details: Homo sapiens, A549, 2 h, read-out: p-ERK IC50 (2 h, A549; μM), 2 h compound treatment, A549 cells, EGF stimulated
# In short: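 Dose-response treatment lasted 2 or 4 h in RPMI 1640/10% FBS at 37 °C. EGF-stimulated (10 ng/mL, 10 min) ERK1/2 phosphorylation was then quantified in cell lysates with a Meso Scale Discovery phospho-ERK1/2 assay.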
# [2] = test system: Phosphorylation of ERK1/2 in MIA PaCa-2 cells; test: Phospho-ERK1/2 MSD assay in MIA PaCa-2 cells; type: cell-based; details: read-out: p-ERK IC50 (2 h, MiaPaCa-2; μM), 2 h compound treatment, MIA PaCa-2 cells, EGF stimulated
# In short: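 Phospho-ERK1/2 measured by MSD electrochemiluminescence kit in RIPA lysates of MIA PaCa-2 cells. Cells were treated with compound titrations for 2 or 4 h at 37 °C, 5% CO2, followed by a 10 min pulse of 10 ng/mL EGF.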
# [3] = target: GDP-bound KRAS protein (aa 1-169), containing both G12C and C118A amino acid substitutions (Homo sapiens (Human), UniProt P01116, C118A/G12C); test: Coupled nucleotide exchange assay (SOS-mediated nucleotide exchange, AlphaScreen); type: biochemical; details: 5 min compound pre-incubation; for IC50: read-out: Coupled exchange IC50 (5 min; μM)
# GDP-bound KRAS protein (aa 1-169), containing both G12C and C118A amino acid substitutions, sequence (P01116 other isoform, or with tags, fused parts or gaps G12C/C118A): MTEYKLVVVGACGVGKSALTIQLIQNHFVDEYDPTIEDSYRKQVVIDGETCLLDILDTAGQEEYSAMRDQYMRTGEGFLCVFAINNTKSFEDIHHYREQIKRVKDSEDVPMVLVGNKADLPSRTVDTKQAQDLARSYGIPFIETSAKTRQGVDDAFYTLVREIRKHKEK
Coupled exchange IC50 (5 min; μM) [3] [µM],SMILES,IC50 [1] [µM],IC50 [2] [µM],IC50 [3] [µM],"IC50 ([2]; Homo sapiens, MIA PaCa-2, 2 h) [µM]"
,"C=CC(=O)N1C[C@H](C)N(c2nc(=O)n(-c3c(N(C)C)ccnc3C(C)C)c3nc(-c4ccccc4C(C)C)c(Cl)cc23)C[C@H]1C [Example 103-1, 4-((2S,5R)-4-Acryloyl-2,5-dimethylpiperazin-1-yl)-6-chloro-1-(4-(dimethylamino)-2-isopropylpyridin-3-yl)-7-(2-isopropylphenyl)pyrido[2,3-d]pyrimidin-2(1H)-one]",> 7.5,0.107,0.105,
,"C=CC(=O)N1C[C@H](C)N(c2nc(=O)n(-c3c(C(C)C)ncn(C)c3=O)c3nc(-c4ccccc4F)c(Cl)cc23)C[C@H]1C [Example 103-2, 6-Chloro-4-[(2S,5R)-2,5-dimethyl-4-prop-2-enoyl-piperazin-1-yl]-7-(2-fluorophenyl)-1-(4-isopropyl-1-methyl-6-oxo-pyrimidin-5-yl)pyrido[2,3-d]pyrimidin-2-one]",> 7.5,,0.084,0.04
0.677,"C=CC(=O)N1C[C@H](C)N(c2nc(=O)n(-c3c(C(C)C)cccc3[S+](C)[O-])c3nc(-c4ccccc4F)c(Cl)cc23)C[C@H]1C (stereo partly drawn) [Example 103-3, 4-((2S,5R)-4-acryloyl-2,5-dimethylpiperazin-1-yl)-6-chloro-7-(2-fluorophenyl)-1-(2-isopropyl-6-(methylsulfinyl)phenyl)pyrido[2,3-d]pyrimidin-2(1H)-one]",> 7.5,,,0.143
,"C=CC(=O)N1C[C@H](C)N(c2nc(=O)n(-c3c(C(C)C)cncc3C(C)C)c3nc(-c4ccccc4F)c(Cl)cc23)C[C@H]1C [Example 103-4, 6-Chloro-1-(3,5-diisopropyl-4-pyridyl)-4-[(2S,5R)-2,5-dimethyl-4-prop-2-enoyl-piperazin-1-yl]-7-(2-fluorophenyl) pyrido[2,3-d]pyrimidin-2-one]",> 7.5,,0.057,0.062
,"C=CC(=O)N1C[C@H](C)N(c2nc(=O)n(-c3c(N(CC)CC)ccnc3C(C)C)c3nc(-c4ccccc4C(C)C)c(Cl)cc23)C[C@H]1C [Example 103-5, 6-Chloro-1-[4-(diethylamino)-2-isopropyl-3-pyridyl]-4-[(2S,5R)-2,5-dimethyl-4-prop-2-enoyl-piperazin-1-yl]-7-(2-isopropylphenyl) pyrido[2,3-d]pyrimidin-2-one]",> 7.5,,0.2,0.507
,"C=CC(=O)N1C[C@H](C)N(c2nc(=O)n(-c3c(N(CC)CC)ccnc3C(C)C)c3nc(-c4ccccc4C)c(Cl)cc23)C[C@H]1C [Example 103-6, 6-chloro-1-[4-(diethylamino)-2-isopropyl-3-pyridyl]-4-[(2S,5R)-2,5-dimethyl-4-prop-2-enoyl-piperazin-1-yl]-7-(o-tolyl)pyrido[2,3 d]pyrimidin-2-one]",> 7.5,,0.08,0.474
,"C=CC(=O)N1C[C@H](C)N(c2nc(=O)n(-c3c(N(C)C)ccnc3C(C)C)c3nc(-c4ccccc4C)c(Cl)cc23)C[C@H]1C [Example 103-7, 6-Chloro-1-[4-(dimethylamino)-2-isopropyl-3-pvridyl]-4-[(2S,5R)-2,5-dimethyl-4-prop-2-enoyl-piperazin-1-yl]-7-(o-tolyl)pyrido[2,3-d]pyrimidin-2-one]",3.75,0.128,0.143,
,"C=CC(=O)N1C[C@H](C)N(c2nc(=O)n(-c3c(C(C)C)nc(Br)nc3C(C)C)c3nc(-c4ccccc4F)c(Cl)cc23)C[C@H]1C [Example 106-1, 4-((2S,5R)-4-Acryloyl-2,5-dimethylpiperazin-1-yl)-1-(2-bromo-4,6-diisopropylpyrimidin-5-yl)-6-chloro-7-(2-fluorophenyl)pyrido[2,3-d]pyrimidin-2(1H)-one]",4.54,,0.08,0.096
,"C=CC(=O)N1CCN(c2nc(=O)n(CC(C)(C)C)c3nc(-c4ccccc4F)c(Cl)cc23)[C@@H](C)C1 [Example 106-2, 6-Chloro-1-(2,2-dimethylpropyl)-7-(2-fluorophenyl)-4-[(2S)-2-methyl-4-prop-2-enoyl-piperazin-1-yl]pyrido[2,3-d]pyrimidin-2-one]",> 7.5,,1.01,5.31
